Results as given in ChEMBL document CHEMBL5113508, “Targeting Human CD22/Siglec-2 with Dimeric Sialosides as Novel Oligosaccharide Mimetics” (J Med Chem, 2022).

How the values were obtained:
B-cell receptor CD22 [1] = biological target: T1, B-cell receptor CD22 (Homo sapiens, UniProt P20273); assay: Inhibition hFc tagged CD22 incubated for 4 hrs by ELISA
T1 sequence (P20273 whole entry): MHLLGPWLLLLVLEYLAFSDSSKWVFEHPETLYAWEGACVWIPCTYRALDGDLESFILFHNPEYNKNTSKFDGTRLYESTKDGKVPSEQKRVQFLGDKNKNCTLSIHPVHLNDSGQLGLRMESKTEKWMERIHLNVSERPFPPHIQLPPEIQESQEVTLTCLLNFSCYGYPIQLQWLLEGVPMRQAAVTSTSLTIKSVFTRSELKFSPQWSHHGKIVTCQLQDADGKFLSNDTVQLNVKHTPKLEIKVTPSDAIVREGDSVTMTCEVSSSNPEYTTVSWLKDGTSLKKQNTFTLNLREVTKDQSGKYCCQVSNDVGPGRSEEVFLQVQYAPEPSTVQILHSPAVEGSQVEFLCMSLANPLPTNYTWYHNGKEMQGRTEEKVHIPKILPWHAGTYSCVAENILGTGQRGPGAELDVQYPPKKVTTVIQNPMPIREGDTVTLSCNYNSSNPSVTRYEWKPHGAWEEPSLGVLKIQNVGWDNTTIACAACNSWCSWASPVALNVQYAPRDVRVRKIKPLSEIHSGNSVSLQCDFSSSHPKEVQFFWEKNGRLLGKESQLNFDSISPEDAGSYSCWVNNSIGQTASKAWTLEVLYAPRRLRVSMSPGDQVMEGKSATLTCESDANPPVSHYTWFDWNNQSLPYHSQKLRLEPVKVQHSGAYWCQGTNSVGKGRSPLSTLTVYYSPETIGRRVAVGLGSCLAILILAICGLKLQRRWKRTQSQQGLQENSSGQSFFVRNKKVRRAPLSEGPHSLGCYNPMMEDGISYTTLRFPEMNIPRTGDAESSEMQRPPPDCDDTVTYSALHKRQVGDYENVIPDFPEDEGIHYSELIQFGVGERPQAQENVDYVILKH

[2] = biological target: B-cell receptor CD22 (Homo sapiens) (UniProt P20273); assay: Inhibition of hFc tagged CD22 (unknown origin) assessed as relative inhibitory potency incubated for 4 hrs by ELISA relative to 1,4-Bis-(2-aza-1-oxo-8-(sodium-(5-acetamido-3,5-dideoxy-D-glycero-alpha-D-galacto-non-2-ulopyranosyloxyonate))-5-thia-octyl)benzene
[3] = biological target: B-cell receptor CD22 (Homo sapiens) (UniProt P20273); assay: Antagonist activity at CD22 in IgM stimulated human Daudi cells assessed as increase in calcium flux incubated for 10 mins by flow cytometric analysis; assay type: cell-based; conditions: dose 2-200 µM, DDE = dose-dependent effect
[4] = biological target: B-cell receptor CD22 (Homo sapiens) (UniProt P20273); assay: Inhibition of CD22 (unknown origin) in human Daudi cells assessed as relative inhibitory potency in presence of biotinylated dimeric 2-(78-biotinoylamino-1,4,7,10,13,16-hexaoxa-octadecyl)-1,4-bis(2-aza-l-oxo-8-(sodium(5-acetamido-3,5,9-trideoxy-9-(4-phenylbenzamido)-D-glycero-a-D-galacto-non-2-ulopyranosyloxyonate))-5-thia-octyl) benzene preincubated for 15 mins followed by probe addition incubated for 20 mins by flow cytometric analysis relative to 1,4-Bis-(2-aza-1-oxo-8-(sodium-(5-acetamido-3,5-dideoxy-D-glycero-alpha-D-galacto-non-2-ulopyranosyloxyonate))-5-thia-octyl)benzene; assay type: cell-based; conditions: time 35.0 min
B-cell receptor CD22 [5] = biological target: T1, B-cell receptor CD22; assay: Inhibition of CD22 in human Daudi cells preincubated for 15 mins followed by biotinylated dimeric 2-(78-biotinoylamino-1,4,7,10,13,16-hexaoxa-octadecyl)-1,4-bis(2-aza-l-oxo-8-(sodium(5-acetamido-3,5,9-trideoxy-9-(4-phenylbenzamido)-D-glycero-a-D-galacto-non-2-ulopyranosyloxyonate))-5-thia-octyl) benzene probe addition incubated for 20 mins by flow cytometric analysis; assay type: cell-based

`CC(=O)N[C@H]1[C@H]([C@H](O)[C@H](O)CNC(=O)c2ccc(-c3ccccc3)cc2)O[C@@](OCCCSCCNC(=O)c2ccc(C(=O)NCCSCCCO[C@]3(C(=O)O)C[C@H](O)[C@@H](NC(C)=O)[C@H]([C@H](O)[C@H](O)CNC(=O)c4ccc(-c5ccccc5)cc4)O3)cc2)(C(=O)O)C[C@@H]1O` was tested, and the IC50 (B-cell receptor CD22 [1]) was 0.00041 µM, the fold change (FC) [2] was 100 and the Activity [3] was “Dde”. For the same compound, the fold change (FC) [4] was 2940 and the IC50 (B-cell receptor CD22 [5]) was 2.2 µM.
